According to article PMC10586511 (Molecular Pharmacology, 2023):
pEC50: −log10 of the molar value.

Molecular target: T1, 5-HT1AR (serotonin 1A receptor) (Homo sapiens, UniProt P08908)
T1 sequence (P08908 1-422): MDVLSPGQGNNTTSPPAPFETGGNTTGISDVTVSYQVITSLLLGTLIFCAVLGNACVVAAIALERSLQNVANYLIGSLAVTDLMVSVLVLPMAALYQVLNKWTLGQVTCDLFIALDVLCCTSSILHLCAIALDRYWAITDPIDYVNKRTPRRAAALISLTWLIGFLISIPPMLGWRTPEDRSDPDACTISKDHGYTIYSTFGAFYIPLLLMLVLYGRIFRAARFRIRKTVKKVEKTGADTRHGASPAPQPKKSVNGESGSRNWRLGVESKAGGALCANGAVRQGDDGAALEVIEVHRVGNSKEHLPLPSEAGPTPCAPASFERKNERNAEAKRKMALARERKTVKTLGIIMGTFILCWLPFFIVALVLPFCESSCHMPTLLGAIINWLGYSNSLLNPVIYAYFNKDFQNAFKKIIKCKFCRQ
Assay: G protein nanoBRET
Assay type: cell-based

Compared with `Cc1cnc(CNCC2(F)CCN(C(=O)c3ccc(F)c(Cl)c3)CC2)nc1` [F-15599], `O=c1[nH]c2ccccc2n1CCN1CCN(c2cccc(C(F)(F)F)c2)CC1` [Flibanserin] is 0.50 log units higher in pEC50: 6.27 for the first, 6.77 for the second. The second is the more potent here.

With `COc1cc2c3c(c1OC)-c1ccccc1C[C@H]3N(C)CC2` [Nuciferine] the pEC50 was 4.78.
